{
  "source": "the NIST ThermoML archive (doi:10.1016/j.jct.2018.01.024)",
  "experiment": "mn = molality of the nth substance listed, in mol/kg",
  "details": "Liquid",
  "note": "± gives the expanded uncertainty stated by the source.",
  "data": [
    {"smiles": "NC(N)=O", "note": "[urea] + O", "values": [
      {"measurement": "mass density", "setting": "323.15 K, 25000 kPa, Constant-volume piezometry, m1 = 0.1809", "value": "1001.22 ± 0.3", "unit": "kg/m3"},
      {"measurement": "mass density", "setting": "323.15 K, 25000 kPa, Constant-volume piezometry, m1 = 0.4362", "value": "1004.83 ± 0.3", "unit": "kg/m3"},
      {"measurement": "mass density", "setting": "323.15 K, 25000 kPa, Constant-volume piezometry, m1 = 0.5644", "value": "1006.62 ± 0.31", "unit": "kg/m3"},
      {"measurement": "mass density", "setting": "323.15 K, 25000 kPa, Constant-volume piezometry, m1 = 1.609", "value": "1020.35 ± 0.35", "unit": "kg/m3"},
      {"measurement": "mass density", "setting": "323.15 K, 25000 kPa, Constant-volume piezometry, m1 = 2.505", "value": "1031.14 ± 0.36", "unit": "kg/m3"},
      {"measurement": "mass density", "setting": "323.15 K, 25000 kPa, Constant-volume piezometry, m1 = 3.376", "value": "1040.83 ± 0.36", "unit": "kg/m3"},
      {"measurement": "mass density", "setting": "323.15 K, 25000 kPa, Constant-volume piezometry, m1 = 5.39", "value": "1060.7 ± 1.1", "unit": "kg/m3"},
      {"measurement": "mass density", "setting": "323.15 K, 25000 kPa, Constant-volume piezometry, m1 = 8", "value": "1082.18 ± 1.1", "unit": "kg/m3"},
      {"measurement": "mass density", "setting": "323.15 K, 25000 kPa, Constant-volume piezometry, m1 = 10.99", "value": "1102.45 ± 1.2", "unit": "kg/m3"},
      {"measurement": "mass density", "setting": "323.15 K, 25000 kPa, Constant-volume piezometry, m1 = 12.8", "value": "1112.95 ± 1.2", "unit": "kg/m3"},
      {"measurement": "mass density", "setting": "323.15 K, 50000 kPa, Constant-volume piezometry, m1 = 0.1809", "value": "1011.26 ± 0.5", "unit": "kg/m3"},
      {"measurement": "mass density", "setting": "323.15 K, 50000 kPa, Constant-volume piezometry, m1 = 0.4362", "value": "1014.82 ± 0.5", "unit": "kg/m3"},
      {"measurement": "mass density", "setting": "323.15 K, 50000 kPa, Constant-volume piezometry, m1 = 0.5644", "value": "1016.57 ± 0.5", "unit": "kg/m3"},
      {"measurement": "mass density", "setting": "323.15 K, 50000 kPa, Constant-volume piezometry, m1 = 1.609", "value": "1030.14 ± 0.54", "unit": "kg/m3"},
      {"measurement": "mass density", "setting": "323.15 K, 50000 kPa, Constant-volume piezometry, m1 = 2.505", "value": "1040.78 ± 0.54", "unit": "kg/m3"},
      {"measurement": "mass density", "setting": "323.15 K, 50000 kPa, Constant-volume piezometry, m1 = 3.376", "value": "1050.36 ± 0.55", "unit": "kg/m3"},
      {"measurement": "mass density", "setting": "323.15 K, 50000 kPa, Constant-volume piezometry, m1 = 5.39", "value": "1069.99 ± 1.2", "unit": "kg/m3"},
      {"measurement": "mass density", "setting": "323.15 K, 50000 kPa, Constant-volume piezometry, m1 = 8", "value": "1091.23 ± 1.2", "unit": "kg/m3"},
      {"measurement": "mass density", "setting": "323.15 K, 50000 kPa, Constant-volume piezometry, m1 = 10.99", "value": "1111.32 ± 1.2", "unit": "kg/m3"},
      {"measurement": "mass density", "setting": "323.15 K, 50000 kPa, Constant-volume piezometry, m1 = 12.8", "value": "1121.73 ± 1.3", "unit": "kg/m3"},
      {"measurement": "mass density", "setting": "323.15 K, 75000 kPa, Constant-volume piezometry, m1 = 0.1809", "value": "1020.8 ± 0.7", "unit": "kg/m3"},
      {"measurement": "mass density", "setting": "323.15 K, 75000 kPa, Constant-volume piezometry, m1 = 0.4362", "value": "1024.31 ± 0.7", "unit": "kg/m3"},
      {"measurement": "mass density", "setting": "323.15 K, 75000 kPa, Constant-volume piezometry, m1 = 0.5644", "value": "1026.04 ± 0.71", "unit": "kg/m3"},
      {"measurement": "mass density", "setting": "323.15 K, 75000 kPa, Constant-volume piezometry, m1 = 1.609", "value": "1039.38 ± 0.74", "unit": "kg/m3"},
      {"measurement": "mass density", "setting": "323.15 K, 75000 kPa, Constant-volume piezometry, m1 = 2.505", "value": "1049.87 ± 0.74", "unit": "kg/m3"},
      {"measurement": "mass density", "setting": "323.15 K, 75000 kPa, Constant-volume piezometry, m1 = 3.376", "value": "1059.32 ± 0.75", "unit": "kg/m3"},
      {"measurement": "mass density", "setting": "323.15 K, 75000 kPa, Constant-volume piezometry, m1 = 5.39", "value": "1078.73 ± 1.3", "unit": "kg/m3"},
      {"measurement": "mass density", "setting": "323.15 K, 75000 kPa, Constant-volume piezometry, m1 = 8", "value": "1099.84 ± 1.3", "unit": "kg/m3"},
      {"measurement": "mass density", "setting": "323.15 K, 75000 kPa, Constant-volume piezometry, m1 = 10.99", "value": "1119.74 ± 1.4", "unit": "kg/m3"},
      {"measurement": "mass density", "setting": "323.15 K, 75000 kPa, Constant-volume piezometry, m1 = 12.8", "value": "1130.01 ± 1.4", "unit": "kg/m3"},
      {"measurement": "mass density", "setting": "323.15 K, 100000 kPa, Constant-volume piezometry, m1 = 0.1809", "value": "1029.92 ± 0.91", "unit": "kg/m3"},
      {"measurement": "mass density", "setting": "323.15 K, 100000 kPa, Constant-volume piezometry, m1 = 0.4362", "value": "1033.37 ± 0.91", "unit": "kg/m3"},
      {"measurement": "mass density", "setting": "323.15 K, 100000 kPa, Constant-volume piezometry, m1 = 0.5644", "value": "1035.08 ± 0.91", "unit": "kg/m3"},
      {"measurement": "mass density", "setting": "323.15 K, 100000 kPa, Constant-volume piezometry, m1 = 1.609", "value": "1048.25 ± 0.94", "unit": "kg/m3"},
      {"measurement": "mass density", "setting": "323.15 K, 100000 kPa, Constant-volume piezometry, m1 = 2.505", "value": "1058.62 ± 0.95", "unit": "kg/m3"},
      {"measurement": "mass density", "setting": "323.15 K, 100000 kPa, Constant-volume piezometry, m1 = 3.376", "value": "1067.97 ± 0.96", "unit": "kg/m3"},
      {"measurement": "mass density", "setting": "323.15 K, 100000 kPa, Constant-volume piezometry, m1 = 5.39", "value": "1087.2 ± 1.4", "unit": "kg/m3"},
      {"measurement": "mass density", "setting": "323.15 K, 100000 kPa, Constant-volume piezometry, m1 = 8", "value": "1108.07 ± 1.5", "unit": "kg/m3"},
      {"measurement": "mass density", "setting": "323.15 K, 100000 kPa, Constant-volume piezometry, m1 = 10.99", "value": "1127.82 ± 1.5", "unit": "kg/m3"},
      {"measurement": "mass density", "setting": "323.15 K, 100000 kPa, Constant-volume piezometry, m1 = 12.8", "value": "1138.03 ± 1.5", "unit": "kg/m3"},
      {"measurement": "mass density", "setting": "333.15 K, 101 kPa, Vibrating tube method, m1 = 0.093", "value": "984.53 ± 0.09", "unit": "kg/m3"},
      {"measurement": "mass density", "setting": "333.15 K, 101 kPa, Vibrating tube method, m1 = 0.1063", "value": "984.72 ± 0.09", "unit": "kg/m3"},
      {"measurement": "mass density", "setting": "333.15 K, 101 kPa, Vibrating tube method, m1 = 0.141", "value": "985.22 ± 0.09", "unit": "kg/m3"},
      {"measurement": "mass density", "setting": "333.15 K, 101 kPa, Vibrating tube method, m1 = 0.152", "value": "985.38 ± 0.09", "unit": "kg/m3"},
      {"measurement": "mass density", "setting": "333.15 K, 101 kPa, Vibrating tube method, m1 = 0.1809", "value": "985.79 ± 0.09", "unit": "kg/m3"},
      {"measurement": "mass density", "setting": "333.15 K, 101 kPa, Vibrating tube method, m1 = 0.2423", "value": "986.66 ± 0.09", "unit": "kg/m3"},
      {"measurement": "mass density", "setting": "333.15 K, 101 kPa, Vibrating tube method, m1 = 0.4362", "value": "989.38 ± 0.09", "unit": "kg/m3"},
      {"measurement": "mass density", "setting": "333.15 K, 101 kPa, Vibrating tube method, m1 = 0.5644", "value": "991.15 ± 0.09", "unit": "kg/m3"},
      {"measurement": "mass density", "setting": "333.15 K, 101 kPa, Vibrating tube method, m1 = 1.008", "value": "997.11 ± 0.08", "unit": "kg/m3"},
      {"measurement": "mass density", "setting": "333.15 K, 101 kPa, Vibrating tube method, m1 = 1.609", "value": "1004.81 ± 0.22", "unit": "kg/m3"},
      {"measurement": "mass density", "setting": "333.15 K, 101 kPa, Vibrating tube method, m1 = 2.505", "value": "1015.53 ± 0.21", "unit": "kg/m3"},
      {"measurement": "mass density", "setting": "333.15 K, 101 kPa, Vibrating tube method, m1 = 3.376", "value": "1025.17 ± 0.2", "unit": "kg/m3"},
      {"measurement": "mass density", "setting": "333.15 K, 101 kPa, Vibrating tube method, m1 = 4.33", "value": "1034.98 ± 0.19", "unit": "kg/m3"},
      {"measurement": "mass density", "setting": "333.15 K, 101 kPa, Vibrating tube method, m1 = 5.39", "value": "1044.98 ± 0.86", "unit": "kg/m3"},
      {"measurement": "mass density", "setting": "333.15 K, 101 kPa, Vibrating tube method, m1 = 8", "value": "1066.38 ± 0.78", "unit": "kg/m3"},
      {"measurement": "mass density", "setting": "333.15 K, 101 kPa, Vibrating tube method, m1 = 9.9", "value": "1079.64 ± 0.64", "unit": "kg/m3"},
      {"measurement": "mass density", "setting": "333.15 K, 101 kPa, Vibrating tube method, m1 = 12.8", "value": "1096.9 ± 0.61", "unit": "kg/m3"}
    ]}
  ]
}
